Test results reported in patent US4585757A, “Hypotensive active peptides” (Texas Tech University Health Sciences Center, priority 1984, dated 1986).
Where two headings read alike, the source gives them in different places. Peptide text beside a SMILES is read from it.

Assays:
Mongrel dogs = test: dog blood pressure assay; type: in vivo; details: dose 3 × 10^-9 moles/kg, mean of 4 replications
Method: The dog blood pressure assay was conducted according to the following method:
Mongrel dogs of either sex weighing between 6-15 kg were anesthetized by intravenous injection of sodium pentobarbital (30 mg/kg). The femoral artery and vein were cannulated for the measurement of blood pressure and the injection of drugs, respectively. Arterial blood pressure was determined with a Statham pressure transducer and was recorded on a Grass polygraph. Mean arterial pressure (MAP) were calculated for the periods before and after each peptide injection. A tracheotomy was performed to insure a patient airway for spontaneous respiration.
Hypotensive screening studies involved injecting each dog with 0.1; 0.5; 1.0; and 2.0 ug/kg. The CIP as supplied by Peninsula Laboratories was in the lyophilyzed form. Prior to injection the CIP was dissolved in saline.

[1] = test system: rat tail artery helical strip; design: dose or concentration left out as unconfirmed; details: strips contracted with arginine vasopressin
Method: Male and female Sprague-Dawley rats were anesthetized with pentobarbital (50 mg/kg) before removal of the tail artery. Upon isolation the artery was placed in ice cold Krebs-Hensleit solution (KHS) which was oxygenated with 95% O2, 5% CO2. The vessels were cut helically and strips of approximately 1.5 cm were secured in a Sawyer-Bartleston chamber containing KHS. The development of force of the helical strips was measured with a Grass FT.03 force displacement transducer and recorded on a Grass Model 79D polygraph. Isolated tail artery helical strips were equilibrated for one hour prior to addition of any peptide. In all cases, the strips were first contracted by adding arginine vasopressin (AVP), to the bath. The peptide being studied was then added to the bath and the degree of relaxation was determined.

Sprague-Dawley rats = test: rat blood pressure assay; type: in vivo; details: anesthetized rat, mean of 4 replications
Method: The rat blood pressure assay was conducted as follows: Sprague-Dawley rats of both sexes, weighing between 100 and 200 grams, were anesthetized with sodium pentobarbital and the right carotid artery and jugular vein were cannulated with polyethylene tubing PE50. The hypotensive peptide was administered and blood pressure was recorded in the anesthetized rats as described above for dogs.

Compound | Tension change ([1]; dose of 100) [gm] | Tension change ([1]; dose of 200) [gm] | Tension change ([1]; dose of 500) [gm] | also measured
NC(N)=NCCC[C@H](NC(=O)[C@H](Cc1ccccc1)NC(=O)[C@@H]1CCCN1C(=O)[C@H](CO)NC(=O)[C@H](Cc1ccccc1)NC(=O)CNC(=O)[C@@H]1CCCN1C(=O)[C@@H]1CCCN1C(=O)[C@@H](N)CCCN=C(N)N)C(=O)O [Bradykinin] (H-RPPGFSPFR-OH) | – | – | – | Maximum Decrease in Blood Pressure (Mongrel dogs): 44 mmHg
N=C(N)NCCC[C@H](N)C(=O)O [L Arg, L-arginine] | 0 | 0 | 0 | –
O=C(O)[C@@H]1CCCN1 [L Pro, L-proline] | 0 | 0 | 0 | –
Thy-Pro-Arg-Lys [Contraceptive tetrapeptide] | – | – | – | Blood Pressure Decrease (Sprague-Dawley rats; dose 100.0 ug/kg): 2 mmHg; Blood Pressure Decrease (Sprague-Dawley rats; dose 200.0 ug/kg): 3 mmHg; Blood Pressure Decrease (Sprague-Dawley rats; dose 500.0 ug/kg): 9 mmHg; Blood Pressure Decrease (Sprague-Dawley rats; dose 1000.0 ug/kg): 13 mmHg; Blood Pressure Decrease (Sprague-Dawley rats; dose 2000.0 ug/kg): 15 mmHg
